Data published in ChEMBL document CHEMBL4507317, “Data for DCP probe BAY-899” (2021).

Key:
[1] = target: Follicle-stimulating hormone receptor (Homo sapiens, UniProt P23945); assay: Cell-based assay (FSH Antagonism)
[2] = tested on: Tyrosine-protein kinase ABL1 (Homo sapiens), P00519 [F317L]; conditions: Compound concentration 1000.0 nM
[3] = tested on: Tyrosine-protein kinase ABL1 (Homo sapiens), P00519 [F317L]; conditions: Compound concentration 1000.0 nM; remark: listed apart in the source
[4] = tested on: Tyrosine-protein kinase ABL1 (Homo sapiens), P00519 [H396P]; conditions: Compound concentration 1000.0 nM
[5] = tested on: Tyrosine-protein kinase ABL1 (Homo sapiens), P00519 [M351T]; conditions: Compound concentration 1000.0 nM
[6] = target: Aurora kinase B (Homo sapiens) (UniProt Q96GD4); conditions: Compound concentration 1000.0 nM
[7] = target: Calcium/calmodulin-dependent protein kinase type 1D (Homo sapiens) (UniProt Q8IU85); conditions: Compound concentration 1000.0 nM
[8] = target: Calcium/calmodulin-dependent protein kinase type II subunit delta (Homo sapiens) (UniProt Q13557); conditions: Compound concentration 1000.0 nM
[9] = target: Cyclin-dependent kinase 19 (Homo sapiens) (UniProt Q9BWU1); conditions: Compound concentration 1000.0 nM
[10] = target: Cyclin-dependent kinase-like 3 (Homo sapiens) (UniProt Q8IVW4); conditions: Compound concentration 1000.0 nM
[11] = target: Citron Rho-interacting kinase (Homo sapiens) (UniProt O14578); conditions: Compound concentration 1000.0 nM
[12] = target: Casein kinase I isoform delta (Homo sapiens) (UniProt P48730); conditions: Compound concentration 1000.0 nM
[13] = target: Mitogen-activated protein kinase kinase kinase 12 (Homo sapiens) (UniProt Q12852); conditions: Compound concentration 1000.0 nM
[14] = target: Ephrin type-A receptor 3 (Homo sapiens) (UniProt P29320); conditions: Compound concentration 1000.0 nM
[15] = target: Serine/threonine-protein kinase/endoribonuclease IRE1 (Homo sapiens) (UniProt O75460); conditions: Compound concentration 1000.0 nM
[16] = tested on: Receptor-type tyrosine-protein kinase FLT3 (Homo sapiens), P36888 [UNDEFINED MUTATION]; conditions: Compound concentration 1000.0 nM
[17] = tested on: Receptor-type tyrosine-protein kinase FLT3 (Homo sapiens), P36888 [UNDEFINED MUTATION]; conditions: Compound concentration 1000.0 nM; remark: listed apart in the source
[18] = target: Vascular endothelial growth factor receptor 3 (Homo sapiens) (UniProt P35916); conditions: Compound concentration 1000.0 nM
[19] = tested on: Mast/stem cell growth factor receptor Kit (Homo sapiens), P10721 [V559D,V654A]; conditions: Compound concentration 1000.0 nM
[20] = target: Serine/threonine-protein kinase 10 (Homo sapiens) (UniProt O94804); conditions: Compound concentration 1000.0 nM
[21] = target: Serine/threonine-protein kinase MAK (Homo sapiens) (UniProt P20794); conditions: Compound concentration 1000.0 nM
[22] = target: Misshapen-like kinase 1 (Homo sapiens) (UniProt Q8N4C8); conditions: Compound concentration 1000.0 nM
[23] = target: Mitogen-activated protein kinase kinase kinase 9 (Homo sapiens) (UniProt P80192); conditions: Compound concentration 1000.0 nM
[24] = target: Serine/threonine-protein kinase 24 (Homo sapiens) (UniProt Q9Y6E0); conditions: Compound concentration 1000.0 nM
[25] = target: Serine/threonine-protein kinase Nek4 (Homo sapiens) (UniProt P51957); conditions: Compound concentration 1000.0 nM
[26] = target: Serine/threonine-protein kinase Nek7 (Homo sapiens) (UniProt Q8TDX7); conditions: Compound concentration 1000.0 nM
[27] = target: 3-phosphoinositide-dependent protein kinase 1 (Homo sapiens) (UniProt O15530); conditions: Compound concentration 1000.0 nM
[28] = target: Serine/threonine-protein kinase pim-1 (Homo sapiens) (UniProt P11309); conditions: Compound concentration 1000.0 nM
[29] = target: Serine/threonine-protein kinase PLK3 (Homo sapiens) (UniProt Q9H4B4); conditions: Compound concentration 1000.0 nM
[30] = target: Protein kinase C theta type (Homo sapiens) (UniProt Q04759); conditions: Compound concentration 1000.0 nM
[31] = target: Serine/threonine-protein kinase RIO3 (Homo sapiens) (UniProt O14730); conditions: Compound concentration 1000.0 nM
[32] = target: Receptor-interacting serine/threonine-protein kinase 4 (Homo sapiens) (UniProt P57078); conditions: Compound concentration 1000.0 nM
[33] = target: Ribosomal protein S6 kinase alpha-5 (Homo sapiens) (UniProt O75582); conditions: Compound concentration 1000.0 nM
[34] = target: Serine/threonine-protein kinase Sgk2 (Homo sapiens) (UniProt Q9HBY8); conditions: Compound concentration 1000.0 nM
[35] = target: Serine/threonine-protein kinase Sgk3 (Homo sapiens) (UniProt Q96BR1); conditions: Compound concentration 1000.0 nM
[36] = target: Serine/threonine-protein kinase SIK1 (Homo sapiens) (UniProt P57059); conditions: Compound concentration 1000.0 nM
[37] = target: Serine/threonine-protein kinase 16 (Homo sapiens) (UniProt O75716); conditions: Compound concentration 1000.0 nM
[38] = target: Serine/threonine-protein kinase TAO2 (Homo sapiens) (UniProt Q9UL54); conditions: Compound concentration 1000.0 nM
[39] = target: Serine/threonine-protein kinase tousled-like 1 (Homo sapiens) (UniProt Q9UKI8); conditions: Compound concentration 1000.0 nM
[40] = target: Non-receptor tyrosine-protein kinase TNK1 (Homo sapiens) (UniProt Q13470); conditions: Compound concentration 1000.0 nM
[41] = target: NT-3 growth factor receptor (Homo sapiens) (UniProt Q16288); conditions: Compound concentration 1000.0 nM
[42] = target: Serine/threonine-protein kinase WNK1 (Homo sapiens) (UniProt Q9H4A3); conditions: Compound concentration 1000.0 nM
[43] = target: Serine/threonine-protein kinase 25 (Homo sapiens) (UniProt O00506); conditions: Compound concentration 1000.0 nM
[44] = target: 5-hydroxytryptamine receptor 2B (Homo sapiens, UniProt P41595); conditions: Compound concentration 10.0 uM
[45] = target: 5-hydroxytryptamine receptor 2C (Homo sapiens) (UniProt P28335); conditions: Compound concentration 10.0 uM
5-hydroxytryptamine receptor 2C (Homo sapiens), sequence (P28335 whole entry): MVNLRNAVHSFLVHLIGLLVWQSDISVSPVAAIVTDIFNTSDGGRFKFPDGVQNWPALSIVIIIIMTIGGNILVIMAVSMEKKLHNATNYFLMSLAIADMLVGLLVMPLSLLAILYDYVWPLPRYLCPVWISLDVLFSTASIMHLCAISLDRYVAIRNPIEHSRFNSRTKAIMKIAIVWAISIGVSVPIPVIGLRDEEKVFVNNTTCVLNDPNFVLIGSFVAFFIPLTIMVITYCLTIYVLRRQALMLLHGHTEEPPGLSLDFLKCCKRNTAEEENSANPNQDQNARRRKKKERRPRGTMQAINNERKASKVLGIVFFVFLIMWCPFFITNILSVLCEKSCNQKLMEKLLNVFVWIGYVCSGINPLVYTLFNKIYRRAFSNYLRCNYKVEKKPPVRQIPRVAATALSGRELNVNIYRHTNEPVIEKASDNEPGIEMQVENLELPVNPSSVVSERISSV

Receptor-type tyrosine-protein kinase FLT3 (Homo sapiens), P36888 [UNDEFINED MUTATION], sequence (P36888 whole entry, looked up, change not shown): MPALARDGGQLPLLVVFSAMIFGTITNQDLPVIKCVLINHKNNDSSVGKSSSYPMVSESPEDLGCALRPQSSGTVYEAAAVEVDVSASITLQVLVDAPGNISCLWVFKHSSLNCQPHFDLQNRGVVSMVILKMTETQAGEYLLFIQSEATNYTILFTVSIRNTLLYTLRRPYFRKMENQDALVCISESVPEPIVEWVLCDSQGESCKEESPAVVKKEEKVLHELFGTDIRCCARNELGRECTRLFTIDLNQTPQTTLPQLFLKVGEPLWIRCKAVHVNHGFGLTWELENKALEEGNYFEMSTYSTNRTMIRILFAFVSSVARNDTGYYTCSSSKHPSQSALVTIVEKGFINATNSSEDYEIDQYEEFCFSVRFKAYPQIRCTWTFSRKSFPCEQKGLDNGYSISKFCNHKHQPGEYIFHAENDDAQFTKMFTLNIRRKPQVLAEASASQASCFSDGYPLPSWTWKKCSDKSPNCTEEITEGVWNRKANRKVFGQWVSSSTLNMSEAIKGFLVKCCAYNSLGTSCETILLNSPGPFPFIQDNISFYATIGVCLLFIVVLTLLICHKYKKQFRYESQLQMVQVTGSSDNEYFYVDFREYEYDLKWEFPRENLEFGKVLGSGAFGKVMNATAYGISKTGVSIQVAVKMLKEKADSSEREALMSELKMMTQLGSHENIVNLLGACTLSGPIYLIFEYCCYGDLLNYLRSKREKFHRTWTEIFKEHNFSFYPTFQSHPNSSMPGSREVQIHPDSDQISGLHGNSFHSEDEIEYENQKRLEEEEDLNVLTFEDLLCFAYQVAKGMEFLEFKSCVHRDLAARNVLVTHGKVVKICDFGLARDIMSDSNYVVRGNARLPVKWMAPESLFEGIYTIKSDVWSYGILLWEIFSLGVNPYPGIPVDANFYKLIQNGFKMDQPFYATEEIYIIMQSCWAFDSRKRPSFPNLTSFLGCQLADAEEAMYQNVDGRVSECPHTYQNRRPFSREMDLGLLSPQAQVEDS
Serine/threonine-protein kinase RIO3 (Homo sapiens), sequence (O14730 whole entry): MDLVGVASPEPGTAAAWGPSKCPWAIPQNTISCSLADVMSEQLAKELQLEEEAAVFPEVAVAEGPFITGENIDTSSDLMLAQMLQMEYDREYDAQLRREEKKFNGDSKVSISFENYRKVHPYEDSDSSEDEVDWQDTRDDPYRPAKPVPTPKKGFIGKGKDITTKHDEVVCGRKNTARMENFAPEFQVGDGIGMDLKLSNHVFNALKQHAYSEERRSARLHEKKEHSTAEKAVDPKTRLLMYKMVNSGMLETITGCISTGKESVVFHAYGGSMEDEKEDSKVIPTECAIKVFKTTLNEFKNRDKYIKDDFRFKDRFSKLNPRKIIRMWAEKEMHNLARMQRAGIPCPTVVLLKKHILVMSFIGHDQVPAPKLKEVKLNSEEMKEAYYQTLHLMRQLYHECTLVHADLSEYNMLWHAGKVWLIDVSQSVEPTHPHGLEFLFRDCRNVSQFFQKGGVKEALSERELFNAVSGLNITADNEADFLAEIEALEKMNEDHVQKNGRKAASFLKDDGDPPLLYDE
Serine/threonine-protein kinase MAK (Homo sapiens), sequence (P20794 whole entry): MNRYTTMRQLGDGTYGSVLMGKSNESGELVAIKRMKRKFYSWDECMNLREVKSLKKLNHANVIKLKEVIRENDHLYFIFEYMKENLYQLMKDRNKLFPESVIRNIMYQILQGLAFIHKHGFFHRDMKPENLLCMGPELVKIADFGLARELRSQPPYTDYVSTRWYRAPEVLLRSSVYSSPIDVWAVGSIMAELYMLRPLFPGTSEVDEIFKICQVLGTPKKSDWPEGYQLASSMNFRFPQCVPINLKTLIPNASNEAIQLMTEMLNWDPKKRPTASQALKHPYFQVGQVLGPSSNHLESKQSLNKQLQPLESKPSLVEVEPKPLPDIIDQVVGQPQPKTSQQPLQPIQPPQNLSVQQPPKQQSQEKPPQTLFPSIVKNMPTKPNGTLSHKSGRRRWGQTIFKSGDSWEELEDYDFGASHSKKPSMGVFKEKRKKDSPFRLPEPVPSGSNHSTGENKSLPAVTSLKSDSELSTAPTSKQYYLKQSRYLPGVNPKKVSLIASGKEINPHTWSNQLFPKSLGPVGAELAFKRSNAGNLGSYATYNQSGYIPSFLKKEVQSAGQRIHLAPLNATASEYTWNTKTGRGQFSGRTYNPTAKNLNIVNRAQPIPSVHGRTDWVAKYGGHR
Serine/threonine-protein kinase WNK1 (Homo sapiens), sequence (Q9H4A3 whole entry, looked up): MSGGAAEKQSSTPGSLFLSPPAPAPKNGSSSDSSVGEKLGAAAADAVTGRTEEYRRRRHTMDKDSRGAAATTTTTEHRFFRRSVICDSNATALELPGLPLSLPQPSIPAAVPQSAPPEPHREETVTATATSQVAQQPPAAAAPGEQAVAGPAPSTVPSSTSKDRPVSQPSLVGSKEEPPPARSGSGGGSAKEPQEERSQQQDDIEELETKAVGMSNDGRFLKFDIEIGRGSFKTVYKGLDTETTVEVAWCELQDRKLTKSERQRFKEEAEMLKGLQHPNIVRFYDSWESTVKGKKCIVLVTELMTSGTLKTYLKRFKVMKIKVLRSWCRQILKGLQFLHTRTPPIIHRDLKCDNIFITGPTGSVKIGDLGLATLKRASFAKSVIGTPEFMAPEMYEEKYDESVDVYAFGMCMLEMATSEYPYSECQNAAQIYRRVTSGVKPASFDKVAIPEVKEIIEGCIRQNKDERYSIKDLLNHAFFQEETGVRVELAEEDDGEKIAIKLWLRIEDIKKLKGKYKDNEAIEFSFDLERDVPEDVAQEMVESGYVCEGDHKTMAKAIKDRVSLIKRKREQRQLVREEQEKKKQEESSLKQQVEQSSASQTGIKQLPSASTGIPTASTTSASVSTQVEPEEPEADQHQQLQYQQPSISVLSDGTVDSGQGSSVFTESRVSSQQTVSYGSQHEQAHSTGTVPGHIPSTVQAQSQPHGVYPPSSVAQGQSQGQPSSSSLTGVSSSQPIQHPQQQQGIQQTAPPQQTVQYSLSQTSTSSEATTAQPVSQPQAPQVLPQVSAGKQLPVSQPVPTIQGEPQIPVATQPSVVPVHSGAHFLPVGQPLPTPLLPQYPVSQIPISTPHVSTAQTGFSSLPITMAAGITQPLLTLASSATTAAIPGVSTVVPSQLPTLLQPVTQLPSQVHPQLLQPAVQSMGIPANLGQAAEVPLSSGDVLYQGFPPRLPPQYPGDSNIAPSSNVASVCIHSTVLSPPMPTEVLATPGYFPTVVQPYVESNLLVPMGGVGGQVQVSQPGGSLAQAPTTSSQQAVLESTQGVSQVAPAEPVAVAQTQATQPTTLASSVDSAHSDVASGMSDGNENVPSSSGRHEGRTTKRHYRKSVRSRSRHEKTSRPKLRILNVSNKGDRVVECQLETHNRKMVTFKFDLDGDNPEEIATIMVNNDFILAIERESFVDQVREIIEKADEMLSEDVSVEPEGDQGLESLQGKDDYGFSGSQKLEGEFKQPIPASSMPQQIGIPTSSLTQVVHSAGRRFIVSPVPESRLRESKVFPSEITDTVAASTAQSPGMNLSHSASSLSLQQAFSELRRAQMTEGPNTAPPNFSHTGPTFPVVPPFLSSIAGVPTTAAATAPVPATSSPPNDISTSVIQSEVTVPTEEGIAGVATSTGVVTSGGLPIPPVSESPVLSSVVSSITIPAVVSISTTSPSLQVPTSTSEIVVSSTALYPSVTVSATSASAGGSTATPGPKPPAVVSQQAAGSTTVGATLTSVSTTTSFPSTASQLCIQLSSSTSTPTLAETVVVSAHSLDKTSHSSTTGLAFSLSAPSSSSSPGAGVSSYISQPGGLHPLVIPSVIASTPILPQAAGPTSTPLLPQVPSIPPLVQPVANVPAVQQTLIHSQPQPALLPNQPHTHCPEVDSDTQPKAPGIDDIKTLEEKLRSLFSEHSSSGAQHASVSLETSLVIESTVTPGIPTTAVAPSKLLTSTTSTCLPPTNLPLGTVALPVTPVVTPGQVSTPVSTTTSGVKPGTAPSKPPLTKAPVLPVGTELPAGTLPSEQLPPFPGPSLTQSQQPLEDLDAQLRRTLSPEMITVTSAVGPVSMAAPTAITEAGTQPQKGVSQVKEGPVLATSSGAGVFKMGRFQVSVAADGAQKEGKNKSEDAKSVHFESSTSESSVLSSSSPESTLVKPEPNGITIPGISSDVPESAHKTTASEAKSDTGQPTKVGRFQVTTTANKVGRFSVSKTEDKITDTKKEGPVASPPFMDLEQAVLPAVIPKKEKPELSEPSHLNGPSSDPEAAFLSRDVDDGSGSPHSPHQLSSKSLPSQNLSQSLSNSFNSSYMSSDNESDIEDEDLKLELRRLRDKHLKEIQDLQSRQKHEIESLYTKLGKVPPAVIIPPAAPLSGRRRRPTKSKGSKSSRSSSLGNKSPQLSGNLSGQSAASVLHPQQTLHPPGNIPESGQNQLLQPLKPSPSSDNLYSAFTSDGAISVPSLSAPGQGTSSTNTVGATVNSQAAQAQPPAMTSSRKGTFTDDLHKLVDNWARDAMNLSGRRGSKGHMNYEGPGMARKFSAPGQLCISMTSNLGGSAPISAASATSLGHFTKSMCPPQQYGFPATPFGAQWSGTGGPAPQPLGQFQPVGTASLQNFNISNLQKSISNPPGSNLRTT

O=C(Nc1cnc(Oc2ccc(F)cc2)nc1)N1CCc2ncccc2[C@@H]1c1ccc(F)cc1 [BAY-899]
IC50 [1]: > 16 µM (not active)
residual activity [2]: 81%
residual activity [3]: 83%
residual activity [4]: 100%
residual activity [5]: 57%
residual activity [6]: 80%
residual activity [7]: 100%
residual activity [8]: 92%
residual activity [9]: 75%
residual activity [10]: 77%
residual activity [11]: 88%
residual activity [12]: 100%
residual activity [13]: 100%
residual activity [14]: 82%
residual activity [15]: 85%
residual activity [16]: 92%
residual activity [17]: 79%
residual activity [18]: 96%
residual activity [19]: 84%
residual activity [20]: 94%
residual activity [21]: 100%
residual activity [22]: 100%
residual activity [23]: 92%
residual activity [24]: 77%
residual activity [25]: 79%
residual activity [26]: 84%
residual activity [27]: 97%
residual activity [28]: 91%
residual activity [29]: 87%
residual activity [30]: 94%
residual activity [31]: 89%
residual activity [32]: 100%
residual activity [33]: 85%
residual activity [34]: 79%
residual activity [35]: 100%
residual activity [36]: 88%
residual activity [37]: 100%
residual activity [38]: 87%
residual activity [39]: 90%
residual activity [40]: 97%
residual activity [41]: 75%
residual activity [42]: 100%
residual activity [43]: 82%
inhibition [44]: 37.6%
inhibition [45]: 18.3%

O=C(Nc1ccc(Oc2ccc(F)cc2)cc1)N1CCc2ncccc2[C@H]1c1ccc(F)cc1 [BAY-897]
IC50 [1]: > 16 µM (not active)
residual activity [2]: 70%
residual activity [3]: 86%
residual activity [4]: 92%
residual activity [5]: 51%
residual activity [6]: 89%
residual activity [7]: 100%
residual activity [8]: 89%
residual activity [9]: 79%
residual activity [10]: 82%
residual activity [11]: 91%
residual activity [12]: 90%
residual activity [13]: 100%
residual activity [14]: 91%
residual activity [15]: 85%
residual activity [16]: 99%
residual activity [17]: 93%
residual activity [18]: 96%
residual activity [19]: 90%
residual activity [20]: 100%
residual activity [21]: 100%
residual activity [22]: 99%
residual activity [23]: 100%
residual activity [24]: 93%
residual activity [25]: 94%
residual activity [26]: 82%
residual activity [27]: 88%
residual activity [28]: 99%
residual activity [29]: 87%
residual activity [30]: 95%
residual activity [31]: 96%
residual activity [32]: 84%
residual activity [33]: 95%
residual activity [34]: 100%
residual activity [35]: 97%
residual activity [36]: 99%
residual activity [37]: 100%
residual activity [38]: 100%
residual activity [39]: 100%
residual activity [40]: 96%
residual activity [41]: 68%
residual activity [42]: 96%
residual activity [43]: 100%
inhibition [44]: 52.4%
inhibition [45]: 68.4%
